Laboratory results from patent US20020026053A1, “Novel 3-(substituted) -2- indolinones compounds and use thereof as inhibitors of protein kinase activity” (priority 1997, published 2002).
Values joined by “and” are separate entries in the source; they are usually repeats but may differ in a detail not shown here. Equal entries are not always repeated.

system: FLK-1 receptor; experiment: FLK-1 Assay (cellular/catalytic ELISA, VEGF-stimulated phosphotyrosine); format: cell-based; set-up: concentration or dose not given beside the values
Experimental: The cellular/catalytic assays described herein are performed in an ELISA format. The general procedure is as follows: a compound is introduced to cells expressing the test kinase, either naturally or recombinantly, for a selected period of time after which, if the test kinase is a receptor, a ligand known to activate the receptor is added. The cells are lysed and the lysate is transferred to the wells of an ELISA plate previously coated with a specific antibody recognizing the substrate of the enzymatic phosphorylation reaction. Non-substrate components of the cell lysate are washed away and the amount of phosphorylation on the substrate is detected with an antibody specifically recognizing phosphotyrosine compared with control cells that were not contacted with a test compound.
An ELISA assay is conducted to measure the kinase activity of the FLK-1 receptor and more specifically, the inhibition or activation of TK activity on the FLK-1 receptor. Specifically, the following assay can be conducted to measure kinase activity of the FLK-1 receptor in cells genetically engineered to express Flk-1.
a. Corning 96-well ELISA plates (Corning Catalog No. 25805-96);
b. Cappel goat anti-rabbit IgG (catalog no. 55641);
c. PBS (Gibco Catalog No. 450-1300EB);
d. TBSW Buffer (50 mM Tris (pH 7.2), 150 mM NaCl and 0.1% Tween-20);
e. Ethanolamine stock (10% ethanolamine (pH 7.0), stored at 4° C.);
f. HNTG buffer (20 mM HEPES buffer (pH 7.5), 150 mM NaCl, 0.2% Triton X-100, and 10% glycerol);
g. EDTA (0.5 M (pH 7.0) as a 100× stock);
h. Sodium orthovanadate (0.5 M as a 100× stock);
i. Sodium pyrophosphate (0.2 M as a 100× stock);
j. NUNC 96 well V bottom polypropylene plates (Applied Scientific Catalog No. AS-72092);
k. NIH3T3 C7#3 Cells (FLK-1 expressing cells);
l. DMEM with 1× high glucose L-Glutamine (catalog No. 11965-050);
n. L-glutamine, Gibco (catalog no. 25030-016);
o. VEGF, PeproTech, Inc. (catalog no. 100-20)(kept as 1 μg/100 μl stock in Milli-Q dH2O and stored at −20° C.;
p. Affinity purified anti-FLK-1 antiserum;
q. UB40 monoclonal antibody specific for phosphotyrosine (see, Fendley, et al., 1990, Cancer Research 50:1550-1558);
r. EIA grade Goat anti-mouse IgG-POD (BioRad catalog no. 172-1011);
s. 2,2-azino-bis(3-ethylbenz-thiazoline-6-sulfonic acid (ABTS) solution (100 mM citric acid (anhydrous), 250 mM Na2HPO4 (pH 4.0), 0.5 mg/ml ABTS (Sigma catalog no. A-1888)), solution should be stored in dark at 4° C. until ready for use;
t. H2O2 (30% solution) (Fisher catalog no. H325);
u. ABTS/ H2O2 (15 ml ABTS solution, 2 μl H2O2) prepared 5 minutes before use and left at room temperature;
v. 0.2 M HCl stock in H2O;
w. dimethylsulfoxide (100%) (Sigma Catalog No. D-8418); and
y. Trypsin-EDTA (Gibco BRL Catalog No. 25200-049).
1. Coat Corning 96-well ELISA plates with 1.0 μg per well Cappel Anti-rabbit IgG antibody in 0.1M Na2CO3 pH 9.6. Bring final volume to 150 μl per well. Coat plates overnight at 4° C. Plates can be kept up to two weeks when stored at 4° C.
2. Grow cells in Growth media (DMEM, supplemented with 2.0 mM L-Glutamine, 10% FBS) in suitable culture dishes until confluent at 37° C., 5% CO2.
3. Harvest cells by trypsinization and seed in Corning 25850 polystyrene 96-well round bottom cell plates, 25,000 cells/well in 200 μl of growth media.
4. Grow cells at least one day at 37° C., 5% CO2.
5. Wash cells with D-PBS 1×.
6. Add 200 μl/well of starvation media (DMEM, 2.0 mM 1-Glutamine, 0.1% FBS). Incubate overnight at 37° C., 5% CO2.
7. Dilute Compounds 1:20 in polypropylene 96 well plates using starvation media. Dilute dimethylsulfoxide 1:20 for use in control wells.
8. Remove starvation media from 96 well cell culture plates and add 162 μl of fresh starvation media to each well.
9. Add 18 μl of 1:20 diluted compound dilution (from step 7) to each well plus the 1:20 dimethylsulfoxide dilution to the control wells (+/− VEGF), for a final dilution of 1:200 after cell stimulation. Final dimethylsulfoxide is 0.5%. Incubate the plate at 37° C., 5% CO2 for two hours.
10. […]

| Structure (SMILES) | Flk Kinase % Inhibition (P.110) |
| --- | --- |
| Cc1c(Br)cc(Br)c2c1C(=Cc1ccc(F)cc1)C(=O)N2 [10717/H05] | 5.0% |
| Cc1c(Br)cc(Br)c2c1C(=Cc1c[nH]c3ccccc13)C(=O)N2 [10717/H06] | 12.5% |
| Cc1ccc(C=C2C(=O)Nc3c(Br)cc(Br)c(C)c32)s1 [10717/H07] | 1.1% |
| Cc1c(Br)cc(Br)c2c1C(=Cc1ccc(Br)cc1)C(=O)N2 [10717/H08] | −8.4% |
| Cc1c(Br)cc(Br)c2c1C(=Cc1ccc[nH]1)C(=O)N2 [10717/H09] | −17.5% |
| COc1cccc(O)c1C=C1C(=O)Nc2c(Br)cc(Br)c(C)c21 [10717/H10] | −5.0% |
| Cc1[nH]c(C=C2C(=O)Nc3c(Br)cc(Br)c(C)c32)c(Br)c1Br [10717/H11] | −0.4% |
| Cc1c(Br)cc(Br)c2c1C(=Cc1ccc(Br)o1)C(=O)N2 [10726/H05] | −6.1% |
| Cc1cn(C)cc1C=C1C(=O)Nc2c(Br)cc(Br)c(C)c21 [10726/H06] | 17.5% |
| Cc1c(Br)cc(Br)c2c1C(=Cc1cc(O)c3c(c1O)CCCC3)C(=O)N2 [10726/H07] | −9.5% |
| Cc1c(Br)cc(Br)c2c1C(=C1C(=O)Nc3ccc(F)cc31)C(=O)N2 [10726/H08] | −15.0% |
| Cc1c(Br)cc(Br)c2c1C(=C1C(=O)Nc3ccccc31)C(=O)N2 [10726/H09] | 1.5% |
| CCc1ccc(C=C2C(=O)Nc3c(Br)cc(Br)c(C)c32)s1 [10726/H10] | 11.0% |
| COc1ccc(C=C2C(=O)Nc3c(Br)cc(Br)c(C)c32)cc1 [10726/H11] | 12.9% |
| CCN(CC)c1ccc(C=C2C(=O)Nc3c(Br)cc(Br)c(C)c32)cc1 [10727/H02] | −1.2% |
| CCc1cc(CC)c(C=C2C(=O)Nc3c(Br)cc(Br)c(C)c32)[nH]1 [10727/H03] | 4.3% |
| Cc1c(Br)cc(Br)c2c1C(=Cc1cc(Cl)cc(Br)c1O)C(=O)N2 [10727/H04] | 1.8% |
| Cc1c(Br)cc(Br)c2c1C(=Cc1ccccc1Sc1ccc(Cl)cc1)C(=O)N2 [10727/H05] | 5.5% |
| Cc1c(Br)cc(Br)c2c1C(=Cc1cc3c(cc1Cl)OCO3)C(=O)N2 [10727/H06] | −4.4% |

| Structure (SMILES) | Flk Kinase % Inhibition (P.110) |
| --- | --- |
| Cc1c(Br)cc(Br)c2c1C(=Cc1coc3ccccc3c1=O)C(=O)N2 [10727/H07] | −9.7% |
| Cc1c(Br)cc(Br)c2c1C(=Cc1cccc(C#N)c1)C(=O)N2 [10727/H08] | 2.9% |
| Cc1c(Br)cc(Br)c2c1C(=Cc1ccc(C#N)cc1)C(=O)N2 [10727/H09] | −1.4% |
| Cc1c(Br)cc(Br)c2c1C(=Cc1cc(O)ccc1O)C(=O)N2 [10727/H10] | −8.3% |
| COc1cccc(C=C2C(=O)Nc3c(Br)cc(Br)c(C)c32)c1OC [10727/H11] | 3.7% |
| COc1ccc(OC)c(C=C2C(=O)Nc3c(Br)cc(Br)c(C)c32)c1 [10728/H02] | −13.3% |
| COc1cccc(OC)c1C=C1C(=O)Nc2c(Br)cc(Br)c(C)c21 [10728/H03] | −2.1% |
| COc1cc(C=C2C(=O)Nc3c(Br)cc(Br)c(C)c32)cc(OC)c1 [10728/H04] | −4.3% |
| COc1cc(N(C)C)ccc1C=C1C(=O)Nc2c(Br)cc(Br)c(C)c21 [10728/H05] | 1.1% and −4.4% |
| Cc1c(Br)cc(Br)c2c1C(=Cc1ccc3c(c1)Cc1ccccc1-3)C(=O)N2 [10728/H06] | 7.9% |
| Cc1c(Br)cc(Br)c2c1C(=Cc1cccc(C(F)(F)F)c1F)C(=O)N2 [10728/H07] | 1.5% |
| Cc1c(Br)cc(Br)c2c1C(=Cc1c(F)cccc1C(F)(F)F)C(=O)N2 [10728/H09] | 0.7% |
| Cc1c(Br)cc(Br)c2c1C(=Cc1ccccc1OCC(=O)O)C(=O)N2 [10728/H10] | −3.8% |
| COc1cc(C=C2C(=O)Nc3c(Br)cc(Br)c(C)c32)cc2c1OCO2 [10728/H11] | 3.3% |
| COc1ccc2ccccc2c1C=C1C(=O)Nc2c(Br)cc(Br)c(C)c21 [10729/H02] | 14.3% |
| COc1ccc(C=C2C(=O)Nc3c(Br)cc(Br)c(C)c32)c2ccccc12 [10729/H03] | 18.3% |
| CSc1ccc(C=C2C(=O)Nc3c(Br)cc(Br)c(C)c32)cc1 [10729/H04] | 1.1% |
| Cc1ccsc1C=C1C(=O)Nc2c(Br)cc(Br)c(C)c21 [10729/H05] | 22.4% |
| Cc1c(Br)cc(Br)c2c1C(=Cc1cccc(Oc3ccccc3)c1)C(=O)N2 [10729/H06] | 11.0% |

| Structure (SMILES) | Flk Kinase % Inhibition (P.110) |
| --- | --- |
| Cc1c(Br)cc(Br)c2c1C(=Cc1ccccn1)C(=O)N2 [10729/H07] | 9.9% |
| Cc1c(Br)cc(Br)c2c1C(=Cc1cccnc1)C(=O)N2 [10729/H08] | 8.2% |
| Cc1c(Br)cc(Br)c2c1C(=Cc1ccncc1)C(=O)N2 [10729/H09] | −2.7% |
| Cc1c(Br)cc(Br)c2c1C(=Cc1ccc(N3CCCC3)cc1)C(=O)N2 [10729/H10] | 5.3% |
| Cc1c(Br)cc(Br)c2c1C(=CC1C=CCCC1)C(=O)N2 (centres unmarked) [10729/H11] | 8.9% |
| COc1ccc(C=C2C(=O)Nc3c(Br)cc(Br)c(C)c32)c(OC)c1OC [10730/H02] | 21.2% |
| COc1cc(OC)c(OC)cc1C=C1C(=O)Nc2c(Br)cc(Br)c(C)c21 [10730/H03] | 11.5% |
| COc1cc(C=C2C(=O)Nc3c(Br)cc(Br)c(C)c32)cc(OC)c1OC [10730/H04] | 12.1% |
| CC(=O)n1cc(C=C2C(=O)Nc3c(Br)cc(Br)c(C)c32)c2ccccc21 [10730/H05] | 11.7% |
| Cc1c(Br)cc(Br)c2c1C(=Cc1ccc(-c3ccccc3Cl)o1)C(=O)N2 [10730/H07] | 19.0% |
| Cc1c(Br)cc(Br)c2c1C(=Cc1cc3ccccc3nc1Cl)C(=O)N2 [10730/H08] | 9.2% |
| COC1CC(C=C2C(=O)Nc3c(Br)cc(Br)c(C)c32)C(OC)O1 (centres unmarked) [10730/H10] | 18.3% |
| Cc1cc(C=C2C(=O)Nc3c(Br)cc(Br)c(C)c32)oc1C [10730/H11] | 13.9% |
| CCn1c2ccccc2c2cc(C=C3C(=O)Nc4c(Br)cc(Br)c(C)c43)ccc21 [10731/H02] | 19.7% |
| Cc1cc2occ(C=C3C(=O)Nc4c(Br)cc(Br)c(C)c43)c(=O)c2cc1C [10731/H03] | 20.0% |
| C=C(C)C1CC=C(C=C2C(=O)Nc3c(Br)cc(Br)c(C)c32)CC1 (centres unmarked) [10731/H04] | 16.4% |
| Cc1c(Br)cc(Br)c2c1C(=Cc1coc3ccc(C(C)C)cc3c1=O)C(=O)N2 [10731/H05] | 23.6% |
| Cc1ccc2occ(C=C3C(=O)Nc4c(Br)cc(Br)c(C)c43)c(=O)c2c1 [10731/H06] | 28.7% |
